Assay results: patent US9801738B2, “Liquid cast biodegradable arterial stent” (Northwestern University, priority 2010, dated 2017)

How the values were obtained:
[1] = cited from earlier work
neointimal hyperplasia = assay: rat carotid artery injury model, inhibition of neointimal hyperplasia by NO donors; type: in vivo
Description: Using the standard rat carotid artery injury model, the efficacy of two different diazeniumdiolates with markedly different half-lives at inhibiting neointimal hyperplasia were evaluated. […] The two different NO donors investigated were: 1-[2-(carboxylato)pyrrolidin-1-yl]diazen-1-ium-1,2-diolate (PROLI/NO), a short half-life donor, and diazeniumdiolated poly(acrylonitrile) (PAN/NO), a long half-life donor.
To date, it remains unknown how much NO is required in the vasculature to inhibit the subsequent neointimal hyperplasia from developing in humans. In order to estimate how much NO is required in the vasculature to inhibit the subsequent neointimal hyperplasia from developing in humans, the observed NO release may be compared to: 1) data from animal experiments, and 2) known endogenous NO production in humans. […] Because diazeniumdiolates release 2 moles of NO per mole of compound upon reaction with hydrogen ions, it follows that 20 mg of PROLI/NO releases 160 μmoles of NO. Thus, the current formulation that releases 112 μmole/gm (FIG. 10) is similar to what has been used in rat models. An alternative method of estimating whether the current NO-releasing material will produce sufficient NO is to compare the material against known rates of endogenous NO release. […]

| SMILES | half-life [1] | inhibition of neointimal hyperplasia (neointimal hyperplasia; applied to the periadventitial aspect of an injured artery, 20 mg in rodents) | inhibition of intimal area versus injury alone (neointimal hyperplasia; two weeks after injury, rat carotid artery injury model, p<0.05) |
| --- | --- | --- | --- |
| NCCN(CCN)/[N+]([O-])=N/O [DETA/NO] | 20 h | – | – |
| O=C(O)C1CCCN1[N+]([O-])=NO (stereo not drawn) [PROLI/NO, 1-[2-(carboxylato)pyrrolidin-1-yl]diazen-1-ium-1,2-diolate] | – | 91% | 91.2% |
